Where two headings read alike, the source gives them in different places.
Tested on: Zygosaccharomyces bailii ATCC 60483
Format: cell-based
Settings: 30 seconds
Description: The rate at which a composition of the invention killed a test organism was measured by inoculating use solutions with a test organism and then quantifying survivors after various exposure times. Ninety-nine mL of each use solution was transferred to a 250 mL Erlenmeyer flask and allowed to equilibrate to test temperature. The liquid in the flask was swirled vigorously in a rapid circular motion and 1 mL of a suspension of the test organism was added.
After the exposure time, 1 mL quantities of the use solution/test organism mixture were transferred to 9 mL of the use-solution neutralizer. One mL quantities of the neutralizer were pour-plated using the plating medium. Serial 10-fold or 100-fold dilutions of the neutralizer solution were also plated. Plates were incubated and then surviving microorganisms were counted. The Log10 reduction of the test organism due to the use solution was determined by comparing reduction to an untreated control set (referred to as the Inoculum Numbers).
The test method was carried out as described in Example 5.
To determine the antifungal activity of hydrogen peroxide and peroxyacetic independently and in combination with a quaternary ammonium compound, the following experimental perimeters were used. The test organism studied was Zygosaccharomyces bailii ATCC 60483.
The test temperature used was 25° C., and the exposure time was 30 seconds. The use-solution neutralizer used was 1% sodium thiosulfate/1% peptone/0.025% catalase (for POAA, H2O2), Chambers neutralizer (for quaternary ammonium compound), and 1:1 mixture of the above (for POAA/H2O2/quaternary ammonium compound).
The microorganisms were plated on Sabourad dextrose agar and incubated for 4 days at 26° C.

CCCCCCCCCC[N+](C)(C)CCCCCCCCCC.[Cl-] [Didecyl Dimethyl Ammonium Chloride]
Log Reduction (20 ppm, pH 3, 25° C.): 0.00 | Survivors (20 ppm, pH 3, 25° C.): 9.4 × 10^6 cfu/ml | Log Reduction (20 ppm, pH 5, 25° C.): 0.02 | Survivors (20 ppm, pH 5, 25° C.): 7.1 × 10^6 cfu/ml | Log Reduction (20 ppm, pH 7, 25° C.): 0.05 | Survivors (20 ppm, pH 7, 25° C.): 6.6 × 10^6 cfu/ml | Log Reduction (20 ppm, pH 9, 25° C.): 0.18 | Survivors (20 ppm, pH 9, 25° C.): 4.9 × 10^6 cfu/ml | Log Reduction (20 ppm, pH 11, 25° C.): 1.69 | Survivors (20 ppm, pH 11, 25° C.): 1.5 × 10^5 cfu/ml

OO [Hydrogen Peroxide]
Log Reduction (532 ppm, pH 3, 25° C.): 0.00 | Survivors (532 ppm, pH 3, 25° C.): 7.5 × 10^6 cfu/ml | Log Reduction (532 ppm, pH 5, 25° C.): 0.00 | Survivors (532 ppm, pH 5, 25° C.): 9.9 × 10^6 cfu/ml | Log Reduction (532 ppm, pH 7, 25° C.): 0.00 | Survivors (532 ppm, pH 7, 25° C.): 7.9 × 10^6 cfu/ml | Log Reduction (532 ppm, pH 9, 25° C.): 0.04 | Survivors (532 ppm, pH 9, 25° C.): 6.8 × 10^6 cfu/ml | Log Reduction (532 ppm, pH 11, 25° C.): 0.06 | Survivors (532 ppm, pH 11, 25° C.): 6.5 × 10^6 cfu/ml

Source: US6627657B1 (priority 2000, dated 2003)
